Reference: paper PMC11359702, “Synthesis and Biochemical Evaluation of Ethanoanthracenes and Related Compounds: Antiproliferative and Pro-Apoptotic Effects in Chronic Lymphocytic Leukemia (CLL)” (Pharmaceuticals, 2024)
Read-outs that look alike come from different tables or passages of the source.

Tests used:
[1] = tested on: EKVX; assay: NCI-60 five-dose assay; format: cell-based, human; settings: Homo sapiens
Experimental: (§1) A number of our most promising compounds identified through preliminary cell viability testing (23c, 23d, 23f, 23h, 23l, 23m, 23n, 23o, 24f, 24l, 25n and 26n) were selected for NCI drug screening in the 60-cell-line panel. The panel includes nine subcategories based on cancer tissue types, which include leukemia, ovarian, central nervous system, breast, lung, prostate, skin, renal and colon cancer. The compounds were initially assessed in a one-dose assay at a fixed treatment concentration of 10 µM. The compounds selected for further investigation were progressed to a five-dose assay across the concentration ranges of 0.01, 0.1, 1, 10 and 100 µM [72]. The endpoints assessed in the screening protocol were GI50, TGI and LC50 [72].

[2] = tested on: NCI-H460; assay: NCI-60 five-dose assay; format: cell-based, human; settings: Homo sapiens
Experimental: as §1

[3] = tested on: NCI-H23; assay: NCI-60 five-dose assay; format: cell-based, human; settings: Homo sapiens
Experimental: as §1

[4] = tested on: KM12; assay: NCI-60 five-dose assay; format: cell-based, human; settings: Homo sapiens
Experimental: as §1

[5] = tested on: MCF-7; assay: NCI-60 five-dose assay; format: cell-based, human; settings: Homo sapiens, MCF7
Experimental: as §1

[6] = tested on: PC-3; assay: NCI-60 five-dose assay; format: cell-based, human; settings: Homo sapiens
Experimental: as §1

[7] = tested on: SN12C; assay: NCI-60 five-dose assay; format: cell-based, human; settings: Homo sapiens
Experimental: as §1

[8] = tested on: SF-268; assay: NCI-60 five-dose assay; format: cell-based, human; settings: Homo sapiens
Experimental: as §1

[9] = tested on: LOX IMV1; assay: NCI-60 five-dose assay; format: cell-based, human; settings: Homo sapiens
Experimental: as §1

[10] = tested on: CAKI-1; assay: NCI-60 five-dose assay; format: cell-based, human; settings: Homo sapiens
Experimental: as §1

[11] = tested on: SW-620; assay: NCI-60 five-dose assay; format: cell-based, human; settings: Homo sapiens
Experimental: as §1

[12] = tested on: OVCAR-8; assay: NCI-60 five-dose assay; format: cell-based, human; settings: Homo sapiens
Experimental: as §1

[13] = tested on: 786-0; assay: NCI-60 five-dose assay; format: cell-based, human; settings: Homo sapiens
Experimental: as §1

[14] = tested on: HT29; assay: NCI-60 five-dose assay; format: cell-based, human
Experimental: as §1

[15] = tested on: NCI-H226; assay: NCI-60 five-dose assay; format: cell-based, human; settings: Homo sapiens
Experimental: as §1

[16] = tested on: OVCAR-4; assay: NCI-60 five-dose assay; format: cell-based, human; settings: Homo sapiens
Experimental: as §1

[17] = tested on: NCI-H332M; assay: NCI-60 five-dose assay; format: cell-based, human; settings: Homo sapiens
Experimental: as §1

[18] = tested on: SNB-19; assay: NCI-60 five-dose assay; format: cell-based, human; settings: Homo sapiens
Experimental: as §1

[19] = tested on: IGROV1; assay: NCI-60 five-dose assay; format: cell-based, human; settings: Homo sapiens, IGROV-1
Experimental: as §1

[20] = tested on: TK-10; assay: NCI-60 five-dose assay; format: cell-based, human; settings: Homo sapiens
Experimental: as §1

[21] = tested on: HCT-15; assay: NCI-60 five-dose assay; format: cell-based, human; settings: Homo sapiens
Experimental: as §1

[22] = tested on: DU-145; assay: NCI-60 five-dose assay; format: cell-based, human; settings: Homo sapiens
Experimental: as §1

[23] = tested on: HS 578T; assay: NCI-60 five-dose assay; format: cell-based, human; settings: Homo sapiens
Experimental: as §1

[24] = tested on: SK-OV-3; assay: NCI-60 five-dose assay; format: cell-based, human; settings: Homo sapiens
Experimental: as §1

[25] = tested on: OVCAR-5; assay: NCI-60 five-dose assay; format: cell-based, human; settings: Homo sapiens
Experimental: as §1

[26] = tested on: A549/ATCC; assay: NCI-60 five-dose assay; format: cell-based, human; settings: Homo sapiens
Experimental: as §1

[27] = tested on: SK-MEL-2; assay: NCI-60 five-dose assay; format: cell-based, human; settings: Homo sapiens
Experimental: as §1

[28] = tested on: ACHN; assay: NCI-60 five-dose assay; format: cell-based, human; settings: Homo sapiens
Experimental: as §1

[29] = tested on: HCT-116; assay: NCI-60 five-dose assay; format: cell-based, human; settings: Homo sapiens
Experimental: as §1

[30] = tested on: U251; assay: NCI-60 five-dose assay; format: cell-based, human; settings: Homo sapiens, U-251
Experimental: as §1

[31] = tested on: M14; assay: NCI-60 five-dose assay; format: cell-based, human; settings: Homo sapiens
Experimental: as §1

[32] = tested on: COLO205; assay: NCI-60 five-dose assay; format: cell-based, human; settings: Homo sapiens, COLO 205
Experimental: as §1

[33] = tested on: MDA-MB-231/ATCC; assay: NCI-60 five-dose assay; format: cell-based, human; settings: Homo sapiens
Experimental: as §1

[34] = tested on: MDA-MB-468; assay: NCI-60 five-dose assay; format: cell-based, human; settings: Homo sapiens
Experimental: as §1

[35] = tested on: UO-31; assay: NCI-60 five-dose assay; format: cell-based, human; settings: Homo sapiens
Experimental: as §1

[36] = tested on: OVCAR-3; assay: NCI-60 five-dose assay; format: cell-based, human; settings: Homo sapiens
Experimental: as §1

[37] = tested on: SF539; assay: NCI-60 five-dose assay; format: cell-based, human; settings: Homo sapiens, SF-539
Experimental: as §1

[38] = tested on: BT-549; assay: NCI-60 five-dose assay; format: cell-based, human; settings: Homo sapiens
Experimental: as §1

[39] = tested on: UACC-257; assay: NCI-60 five-dose assay; format: cell-based, human; settings: Homo sapiens
Experimental: as §1

[40] = tested on: MDA-MB-435; assay: NCI-60 five-dose assay; format: cell-based, human; settings: Homo sapiens
Experimental: as §1

[41] = tested on: MALME-3M; assay: NCI-60 five-dose assay; format: cell-based, human; settings: Homo sapiens, Malme-3M
Experimental: as §1

[42] = tested on: MOLT-4; assay: NCI-60 five-dose assay; format: cell-based, human
[43] = tested on: HG-3 and PGA-1 cell lines; assay: alamarBlue cell viability assay, mean of both CLL cell lines; format: cell-based, human; settings: Homo sapiens, CLL cell; mean of HG-3 and PGA-1
[44] = tested on: HG-3 cells; assay: alamarBlue cell viability assay; settings: Homo sapiens, HG-3, 24 h
[45] = tested on: NCI 60 cancer cell line panel; assay: NCI-60 five-dose assay, full-panel means; format: cell-based; settings: Homo sapiens
Experimental: as §1

[46] = tested on: breast cancer cell lines; assay: NCI-60 five-dose assay, breast cancer cell lines; format: cell-based, human; settings: Homo sapiens; range over breast cancer cell lines
Experimental: as §1

[47] = tested on: RPMI-8226; assay: NCI-60 five-dose assay; format: cell-based, human
[48] = tested on: melanoma cell lines; assay: NCI-60 five-dose assay, melanoma cell lines; format: cell-based, human; settings: Homo sapiens; range over melanoma cell lines
Experimental: as §1

Work on `O=C(C=CC12c3ccccc3C(c3ccccc31)C1C(=O)N(c3ccc(Cl)cc3)C(=O)C12)c1ccccn1` (stereo not drawn) [Compound 25n, (E)-13-(4-Chlorophenyl)-9-(3-oxo-3-(pyridin-2-yl)prop-1-en-1-yl)-9,10-dihydro-9,10-[3,4]epipyrroloanthracene-12,14-dione] yielded a GI50 [1] of 491 nM, a GI50 [2] of 241 nM and a GI50 [3] of 446 nM. For the same compound, the GI50 [4] was 344 nM, the GI50 [5] was 326 nM and the GI50 [6] was 436 nM. For the same compound, the GI50 [7] was 415 nM, the GI50 [8] was 699 nM and the GI50 [9] was 194 nM. The GI50 [10] was 1070 nM, the GI50 [11] was 299 nM and the GI50 [12] was 409 nM. The GI50 [13] was 216 nM, the GI50 ([14]; Homo sapiens, HT-29, HT29) was 335 nM and the IC50 ([14]; chemoresistant HT-29 human colorectal adenocarcinoma cell line) was 335 nM. It also gave a GI50 [15] of 293 nM, a GI50 [16] of 764 nM and a GI50 [17] of 821 nM. The GI50 [18] was 425 nM, the GI50 [19] was 236 nM and the GI50 [20] was 1460 nM. The GI50 [21] was 213 nM, the GI50 [22] was 410 nM and the GI50 [23] was 458 nM. For the same compound, the GI50 [24] was 3.3 µM, the GI50 [25] was 568 nM and the GI50 [26] was 390 nM. For the same compound, the GI50 [27] was 670 nM, the GI50 [28] was 299 nM and the GI50 [29] was 212 nM. For the same compound, the GI50 [30] was 358 nM, the GI50 [31] was 344 nM and the GI50 [32] was 1160 nM. It also gave a GI50 [33] of 463 nM, a GI50 [34] of 627 nM and a GI50 [35] of 208 nM. It also gave a GI50 [36] of 222 nM, a GI50 [37] of 316 nM and a GI50 [38] of 295 nM. For the same compound, the GI50 [39] was 496 nM, the GI50 [40] was 298 nM and the GI50 [41] was 316 nM. The GI50 ([42]; Homo sapiens, MOLT-4, MOLT-4) was 320 nM, the GI50 ([42]; MOLT-4) was 366 nM and the IC50 [43] was 1090 nM. For the same compound, the IC50 ([44]; read-out: HG-3 IC50) was 1310 nM, the viability at 1 µM ([44]; read-out: cell viability, HG-3, 1 µM, 24 h, vehicle = 100%) was 30% and the viability at 10 µM ([44]; read-out: cell viability, HG-3, 10 µM, 24 h, vehicle = 100%) was 2%. It also gave a GI50 ([45]; heatmap Figure 8, concentration in molar, read-out: Log 10 GI-50 Mean (converted)) of 389 nM, an IC50 ([45]; heatmap Figure 8, concentration in molar, read-out: Log 10 IC-50 Mean (converted)) of 741 nM and a CC50 ([45]; heatmap Figure 8, concentration in molar, read-out: Log 10 LC-50 Mean (converted)) of 41.7 µM. The GI50 ([45]; mean over NCI 60 cell line panel, read-out: Mean GI50 (MID GI50, full-panel mean-graph mid-point)) was 245 nM, the CC50 ([45]; mean over NCI 60 cell line panel, read-out: Mean LC50 (MID LC50)) was 18.6 µM and the GI50 [46] was 295 to 627 nM. It also gave a GI50 ([47]; Homo sapiens, RPMI-8226, RPMI-8226) of 250 nM, a GI50 ([47]; RPMI-8226) of 252 nM and a GI50 [48] of 194 to 1080 nM.
